The results in this text go back to US20240173419A1, “CDK2 DEGRADERS AND USES THEREOF” (Kymera Therapeutics, Inc., priority 2022, published 2024).

This experiment deals with T1, CDK2 (Homo sapiens, UniProt P24941).
T1 construct: endogenous in cells; host or cells: MKN1 cells
Nature of the experiment: CDK2 degradation in MKN1 cells (AlphaLISA). It counts as cell-based. More on the design: key to CDK2 degradation 14 h: Mean external-Abs DC50 (nM): A (<100 nM); B (≥100-500 nM); C (>500-1000 nM); D (>1000 nM); E (not achieved). Conditions: for CDK2 degradation 14 h: Average Dmax % / DC50 / CDK2 degradation 14 h: Mean external-Abs DC50 (nM): 14 h incubation; for DC50: read-out: CDK2 degradation 14 h: Mean external-Abs DC50. Put shortly:
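MKN1 cells (2e4/well) treated 14 h at 37° C with 11-point 1:5 dilutions (0.001 nM-10 μM, 0.1% DMSO). CDK2 in lysates quantified by AlphaLISA, no-cell background subtracted; DC50 from four-parameter logistic fit.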

SMILES strings stand for the structures. Where only a bound is given, the exact number is not on record here.

For `Cc1cc(S(=O)(=O)N2CCC(CN(C)C3CCN(c4cccc5c4n(C)c(=O)n5C4CCC(=O)NC4=O)CC3)CC2)ccc1Nc1ncc2cc(Cl)c(=O)n(C3CCCC34CC4)c2n1` (centres unmarked) [I-436], the “CDK2 degradation 14 h: Average Dmax %” value was “A (A (>75% o))” and the DC50 was < 100 nM.

On to `Cc1cc(S(=O)(=O)NC2CCC(CN3CCN(c4ccc(C5CCC(=O)NC5=O)c(F)c4)CC3)CC2)cc(F)c1Nc1ncc(C(F)(F)F)c(N2CCCC(C)(O)C2)n1` (centres unmarked) [I-1097], for which the “CDK2 degradation 14 h: Average Dmax %” value is “A (A (>75% o))” and the DC50 is < 100 nM.

Regarding `COc1ccc2c(c1N1CCC(N(C)CC3CCN(S(=O)(=O)c4ccc(Nc5ncc6cc(Cl)c(=O)n(C(C)C)c6n5)c(C)c4)CC3)CC1)n(C)c(=O)n2C1CCC(=O)NC1=O` (centres unmarked) [I-379], the “CDK2 degradation 14 h: Average Dmax %” value is recorded as “A (A (>75% o))” and the DC50 was < 100 nM.

Regarding `Cc1cc(S(=O)(=O)N2CC(OCCN3CCC(c4ccc5c(c4)n(C)c(=O)n5C4CCC(=O)NC4=O)CC3)C2)ccc1Nc1ncc2ccc(=O)n(C3CCCC3)c2n1` (centres unmarked) [I-462], the “CDK2 degradation 14 h: Average Dmax %” value is given as “A (A (>75% o))” and the DC50 was < 100 nM.

Turning to `Cc1cc(S(=O)(=O)NC2CCC(CN3CCN(c4ccc([C@H]5CCC(=O)NC5=O)c(Cl)c4)CC3)CC2)ccc1Nc1ncc(C(F)(F)F)c(N2CCC[C@](C)(O)C2)n1` (single isomer, unassigned) [I-817], the DC50 was in the range of 100 to 500 nM. Where the note is “MKN-1, 14 h incubation”, the Dmax was > 75%.

As to `Cc1cc(S(=O)(=O)NC2CCN(CC3CCN(c4ccc(C5CCC(=O)NC5=O)cc4F)CC3)CC2F)ccc1Nc1ncc(C(F)(F)F)c(N2CCCC(C)(O)C2)n1` (centres unmarked) [I-1055], the “CDK2 degradation 14 h: Average Dmax %” value was “A (A (>75% o))” and the DC50 was < 100 nM.

Turning to `Cc1cc(S(=O)(=O)C2CC3(CCN(CC4CCN(c5ccc6c(c5F)n(C)c(=O)n6C5CCC(=O)NC5=O)CC4)CC3)C2)ccc1Nc1ncc2cc(Cl)c(=O)n(C3CCCC3)c2n1` (centres unmarked) [I-38], the “CDK2 degradation 14 h: Average Dmax %” value is “A (A (>75% o))” and the DC50 is < 100 nM.

As to `CC1(O)CCCN(c2nc(Nc3ccc(S(=O)(=O)NC4CCC(CN5CCN(c6ccc(C7CCC(=O)NC7=O)cc6F)CC5)CC4)cc3C(F)F)ncc2C(F)(F)F)C1` (centres unmarked) [I-1113], the “CDK2 degradation 14 h: Average Dmax %” value is on record as “A (A (>75% o))” and the DC50 is < 100 nM.

Consider `Cc1cc(S(=O)(=O)N2CCC(CN(C)C3CCN(c4cccn5c(N6CCC(=O)NC6=O)cnc45)CC3)CC2)ccc1Nc1ncc2cc(Cl)c(=O)n(C3CCCC3)c2n1` [I-414], for which the “CDK2 degradation 14 h: Average Dmax %” value is reported as “B (B (>50% -75%))” and the half-maximal degradation concentration (DC50) lay within 100 to 500 nM.

Regarding `Cc1cc(S(=O)(=O)C2CC3(CCN(CC4CCN(c5ccc6c(c5F)n(C)c(=O)n6C5CCC(=O)NC5=O)CC4)CC3)C2)ccc1Nc1ncc2c(n1)N(C1CCCC(O)C1)C(=O)C21CC1` (centres unmarked) [I-609], the “CDK2 degradation 14 h: Average Dmax %” value is on record as “A (A (>75% o))” and the DC50 was < 100 nM.

As for `Cc1cc(S(=O)(=O)C2CCN(CCC3CCN(c4cccc5c4n(C)c(=O)n5C4CCC(=O)NC4=O)CC3)CC2)ccc1Nc1ncc2cc(Cl)c(=O)n(C(C)C)c2n1` (centres unmarked) [I-11], the “CDK2 degradation 14 h: Average Dmax %” value was “A (A (>75% o))” and the DC50 is < 100 nM.

For `Cc1cc(S(=O)(=O)NCCOCCOCCCc2ccc3c(c2)n(C)c(=O)n3C2CCC(=O)NC2=O)ccc1Nc1ncc2c(n1)N(C1CCCC1)C(=O)C21CC1` (centres unmarked) [I-972], the “CDK2 degradation 14 h: Average Dmax %” value is recorded as “B (B (>50% -75%))” and the DC50 was < 100 nM.

Take `Cc1cc(S(=O)(=O)N[C@H]2C[C@H](N3CCN(CC4CCN(c5cccc6c5n(C)c(=O)n6C5CCC(=O)NC5=O)CC4)CC3)C2)ccc1Nc1ncc(C(F)(F)F)c(N2CCC[C@@H](C(F)F)C2)n1` (some centres unmarked) [I-797]: the “CDK2 degradation 14 h: Average Dmax %” value is reported as “A (A (>75% o))” and the DC50 is < 100 nM.

With `Cc1cc(S(=O)(=O)NC2CC(N3CCN(CC4CCN(c5cccc6c5n(C)c(=O)n6C5CCC(=O)NC5=O)CC4)CC3)C2)ccc1Nc1ncc(C(F)(F)F)c(N2CCCC(C)(O)C2)n1` (centres unmarked) [I-834], the “CDK2 degradation 14 h: Average Dmax %” value is “A (A (>75% o))” and the DC50 was < 100 nM.

Regarding `Cc1cc(S(=O)(=O)C2CCC(N3CCC(CN(C)c4cccc5c4n(C)c(=O)n5C4CCC(=O)NC4=O)CC3)CC2)ccc1Nc1ncc2cc(Cl)c(=O)n(C3CCCC3)c2n1` (centres unmarked) [I-33], the “CDK2 degradation 14 h: Average Dmax %” value is reported as “A (A (>75% o))” and the DC50 is < 100 nM.

For `Cc1cc(S(=O)(=O)NC2CCN(CC3(C)CN(c4ccc(C5CCC(=O)NC5=O)c(Cl)c4)C3)CC2)ccc1Nc1ncc(C(F)(F)F)c(N2CCC[C@](C)(O)C2)n1` (some centres unmarked) [I-910], the “CDK2 degradation 14 h: Average Dmax %” value is reported as “B (B (>50% -75%))” and the DC50 was 100 to 500 nM.

Regarding `Cc1cc(S(=O)(=O)NC2CCC(CN3CCN(c4ccc(C5CCC(=O)NC5=O)cc4)CC3)CC2)ccc1Nc1ncc(C(F)(F)F)c(N2CCCC(C)(O)C2)n1` (centres unmarked) [I-799], the “CDK2 degradation 14 h: Average Dmax %” value is “A (A (>75% o))” and the DC50 is < 100 nM.

For `COc1ccc2c(c1N1CCC(CN3CCC4(CC3)CC(S(=O)(=O)c3ccc(Nc5ncc6cc(Cl)c(=O)n(C7CCCC7)c6n5)c(C)c3)C4)CC1)n(C)c(=O)n2C1CCC(=O)NC1=O` (centres unmarked) [I-88], the “CDK2 degradation 14 h: Average Dmax %” value is “A (A (>75% o))” and the DC50 is < 100 nM.

On to `Cc1cc(S(=O)(=O)NC2CC(N3CCN(CC4(F)CCN(c5cccc6c5n(C)c(=O)n6C5CCC(=O)NC5=O)CC4)CC3)C2)ccc1Nc1ncc(C(F)(F)F)c(N2CCCC(C)(O)C2)n1` (centres unmarked) [I-698], for which the “CDK2 degradation 14 h: Average Dmax %” value was “A (A (>75% o))” and the DC50 was < 100 nM.

On to `Cc1cc(S(=O)(=O)N2CCC(N(CC(F)F)CC3CCN(c4cccc5c4n(C)c(=O)n5C4CCC(=O)NC4=O)CC3)CC2)ccc1Nc1ncc2cc(Cl)c(=O)n(C3CCCC34CC4)c2n1` (centres unmarked) [I-353], for which the “CDK2 degradation 14 h: Average Dmax %” value is reported as “D (D (<25%))” and the DC50 was > 1000 nM.

Turning to `Cc1cc(S(=O)(=O)NCCO[C@H]2CC[C@H](CN3CCC(c4ccc5c(c4)n(C)c(=O)n5C4CCC(=O)NC4=O)CC3)CC2)ccc1Nc1ncc2cc(Cl)c(=O)n(C3CCCC34CC4)c2n1` (some centres unmarked) [I-439], the “CDK2 degradation 14 h: Average Dmax %” value is “A (A (>75% o))” and the DC50 is < 100 nM.

As to `Cc1cc(S(=O)(=O)NCCOCCOCCOCCOCCCc2ccc3c(c2)n(C)c(=O)n3C2CCC(=O)NC2=O)ccc1Nc1ncc2c(C)cc(=O)n(C3CCCC3)c2n1` (centres unmarked) [I-467], the “CDK2 degradation 14 h: Average Dmax %” value was “C (C (>25% -50%))” and the “CDK2 degradation 14 h: Mean external-Abs DC50 (nM)” value is recorded as “E”.

As for `Cc1cc(S(=O)(=O)NC(C)COC2CCC(CN3CCN(c4ccc5c(c4F)n(C)c(=O)n5C4CCC(=O)NC4=O)CC3)CC2)ccc1Nc1ncc(C(F)(F)F)c(C2CCC(C)(O)CC2)n1` (centres unmarked) [I-845], the “CDK2 degradation 14 h: Average Dmax %” value was “B (B (>50% -75%))” and the DC50 fell in the range of 100 to 500 nM.

For `CC1(O)CCCN(c2nc(Nc3ccc(S(=O)(=O)NC4CCN(CC5(C)CCN(c6ccc(C7CCC(=O)NC7=O)cc6F)CC5)CC4F)cc3F)ncc2C(F)(F)F)C1` (centres unmarked) [I-1068], the “CDK2 degradation 14 h: Average Dmax %” value was “A (A (>75% o))” and the DC50 was 100 to 500 nM.

For the compound `CC1(O)CCCN(c2nc(Nc3ccc(S(=O)(=O)NC4CCC(CN5CCN(c6ccc(C7CCC(=O)NC7=O)c(Cl)c6)CC5)CC4)cc3F)ncc2C(F)(F)F)C1` (centres unmarked) [I-1107], the “CDK2 degradation 14 h: Average Dmax %” value is reported as “A (A (>75% o))” and the DC50 was < 100 nM.

Take `Cc1cc(S(=O)(=O)NC2CCC(CN3CCN(c4c(F)cc(C5CCC(=O)NC5=O)cc4F)CC3)CC2)ccc1Nc1ncc(C(F)(F)F)c(N2CCCC(C)(O)C2)n1` (centres unmarked) [I-935]: the “CDK2 degradation 14 h: Average Dmax %” value is “A (A (>75% o))” and the DC50 is < 100 nM.

`O=C1CCC(c2ccc(N3CCN(C[C@H]4CC[C@H](NS(=O)(=O)c5ccc(Nc6ncc(C(F)(F)F)c(-c7cnn(C8CCOCC8)c7)n6)c(F)c5)CC4)CC3)cc2Cl)C(=O)N1` (some centres unmarked) [I-818]: the “CDK2 degradation 14 h: Average Dmax %” value was “A (A (>75% o))” and the DC50 is < 100 nM.

Turning to `Cc1cc(S(=O)(=O)C2CCC(CN(C)C3CCN(c4cccc5c4n(C)c(=O)n5C4CCC(=O)NC4=O)CC3)CC2)ccc1Nc1ncc(C(F)(F)F)c(-c2cnn(C)c2)n1` (centres unmarked) [I-46], the “CDK2 degradation 14 h: Average Dmax %” value is listed as “A (A (>75% o))” and the DC50 was < 100 nM.

On to `Cc1cc(S(=O)(=O)NC2CC(N3CCC4(CC3)CN(Cc3cccc5c3n(C)c(=O)n5C3CCC(=O)NC3=O)C4)C2)ccc1Nc1ncc(C(F)(F)F)c(N2CCCC(C)(O)C2)n1` (centres unmarked) [I-697], for which the “CDK2 degradation 14 h: Average Dmax %” value is recorded as “A (A (>75% o))” and the DC50 lay in the range of 100 to 500 nM.

In the case of `Cc1cc(S(=O)(=O)CCCO[C@H]2CC[C@H](CN3CCC(c4ccc5c(c4)n(C4CCC(=O)NC4=O)c(=O)n5C)CC3)CC2)ccc1Nc1ncc2cc(C(F)F)c(=O)n(C(C)C)c2n1` (some centres unmarked) [I-6], the “CDK2 degradation 14 h: Average Dmax %” value is on record as “B (B (>50% -75%))” and the “CDK2 degradation 14 h: Mean external-Abs DC50 (nM)” value is given as “E”.

For `Cc1cc(S(=O)(=O)NCCOC2CCC3(CC2)CCN(CC#Cc2ccc4c(c2)n(C)c(=O)n4C2CCC(=O)NC2=O)CC3)ccc1Nc1ncc2ccc(=O)n(C3CCCC3)c2n1` (centres unmarked) [I-471], the “CDK2 degradation 14 h: Average Dmax %” value is “A (A (>75% o))” and the DC50 is < 100 nM.

As for `Cc1c(Nc2ncc(C(F)(F)F)c(N3CCCC(C)(O)C3)n2)ccc(S(=O)(=O)NC2CCC(CN3CCN(c4ccc(C5CCC(=O)NC5=O)c(F)c4)CC3)CC2)c1F` (centres unmarked) [I-1105], the “CDK2 degradation 14 h: Average Dmax %” value was “A (A (>75% o))” and the DC50 was < 100 nM.

Consider `COCc1cnc(Nc2ccc(S(=O)(=O)C3CC4(CCN(CC5CCN(c6ccc7c(c6F)n(C)c(=O)n7C6CCC(=O)NC6=O)CC5)CC4)C3)cc2C)nc1N1CCCC(C)(O)C1` (centres unmarked) [I-856], for which the “CDK2 degradation 14 h: Average Dmax %” value is “D (D (<25%))” and the DC50 is > 1000 nM.

For `Cc1cc(S(=O)(=O)NC(C)COC2CCC(CN3CCN(c4ccc5c(c4F)n(C)c(=O)n5C4CCC(=O)NC4=O)CC3)CC2)ccc1Nc1ncc2cc(Cl)c(=O)n(C(C)C(C)(C)O)c2n1` (centres unmarked) [I-843], the “CDK2 degradation 14 h: Average Dmax %” value is “D (D (<25%))” and the DC50 was > 1000 nM.
